Laboratory results: ChEMBL document CHEMBL1201862, “PubChem BioAssay data set” (2004)
Calls of active or inactive are those of the source.

Columns and labels:
[1] = target: Peroxisome proliferator-activated receptor gamma/Nuclear receptor corepressor 2 (Homo sapiens, UniProt P37231+Q9Y618); assay type: functional
[2] = target: Photoreceptor-specific nuclear receptor (Homo sapiens, UniProt Q9Y5X4); assay type: functional;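 further: potency for compounds that break the NR2E3 corepressor complex and count as activators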
Chain of Photoreceptor-specific nuclear receptor (Q9Y5X4 whole entry): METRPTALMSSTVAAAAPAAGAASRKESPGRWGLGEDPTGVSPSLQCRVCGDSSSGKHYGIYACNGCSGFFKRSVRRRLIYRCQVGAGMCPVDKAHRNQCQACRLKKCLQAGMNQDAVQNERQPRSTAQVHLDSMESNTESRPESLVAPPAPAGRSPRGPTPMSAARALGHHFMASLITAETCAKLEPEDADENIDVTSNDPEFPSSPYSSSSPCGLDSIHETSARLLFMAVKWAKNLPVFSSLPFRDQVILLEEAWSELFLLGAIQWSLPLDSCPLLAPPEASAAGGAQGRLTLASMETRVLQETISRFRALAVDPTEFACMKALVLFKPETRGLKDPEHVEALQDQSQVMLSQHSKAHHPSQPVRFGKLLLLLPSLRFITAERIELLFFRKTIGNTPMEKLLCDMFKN

[3] = target: Glyceraldehyde-3-phosphate dehydrogenase (Homo sapiens, UniProt P04406)
Chain of Glyceraldehyde-3-phosphate dehydrogenase (P04406 whole entry): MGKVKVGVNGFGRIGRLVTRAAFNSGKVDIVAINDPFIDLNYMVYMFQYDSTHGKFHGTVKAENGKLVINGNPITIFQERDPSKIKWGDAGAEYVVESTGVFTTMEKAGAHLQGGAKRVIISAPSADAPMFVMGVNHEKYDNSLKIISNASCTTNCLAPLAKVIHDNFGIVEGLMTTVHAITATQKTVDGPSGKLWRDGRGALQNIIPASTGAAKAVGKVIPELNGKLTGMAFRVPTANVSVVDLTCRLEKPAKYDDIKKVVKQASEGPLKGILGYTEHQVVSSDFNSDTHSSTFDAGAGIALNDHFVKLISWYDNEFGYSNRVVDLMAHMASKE

Bcl-2-like protein 10 = target: T1, Bcl-2-like protein 10 (Homo sapiens, UniProt Q9HD36); assay: Bcl-B/TR3 peptide binding disruption – biochemical, fluorescence polarization, FITC-TR3 peptide, selectivity assay for Bfl-1 inhibitor project, primary screen (AID 748);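 further: fluorescence polarization from a fluorescein-labelled TR3 peptide binding purified Bcl-B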
T1 sequence (Q9HD36 whole entry): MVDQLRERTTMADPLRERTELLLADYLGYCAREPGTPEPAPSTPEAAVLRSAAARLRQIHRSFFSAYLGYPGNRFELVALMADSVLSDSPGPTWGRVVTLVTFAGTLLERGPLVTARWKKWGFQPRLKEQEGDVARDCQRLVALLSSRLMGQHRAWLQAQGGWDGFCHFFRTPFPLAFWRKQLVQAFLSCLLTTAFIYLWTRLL

Galanin receptor type 3 = target: T2, Galanin receptor type 3 (Homo sapiens, UniProt O60755); assay: Fluorescence-based cell-based primary high throughput dose response assay to identify antagonists of the Galanin Receptor 3 (GalR3).; assay type: functional
T2 sequence (O60755 whole entry): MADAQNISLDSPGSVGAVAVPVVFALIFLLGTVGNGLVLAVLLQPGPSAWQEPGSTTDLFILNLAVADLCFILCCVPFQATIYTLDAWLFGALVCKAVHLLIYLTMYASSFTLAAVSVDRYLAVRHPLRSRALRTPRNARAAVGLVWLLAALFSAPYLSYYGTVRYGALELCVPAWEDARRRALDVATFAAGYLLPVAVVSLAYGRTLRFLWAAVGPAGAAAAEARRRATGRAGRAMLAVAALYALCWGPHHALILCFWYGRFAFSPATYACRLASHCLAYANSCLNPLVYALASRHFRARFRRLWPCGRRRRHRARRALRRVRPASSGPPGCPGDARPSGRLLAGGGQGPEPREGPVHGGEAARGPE

[4] = NIH3T3 cell viability loss – ATP luminescence, mouse fibroblasts, counter-screen, dose response (AID 2010); assay type: functional, cell-based;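 further: cells exposed to compound for about 90 hours before reading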
[5] = target: T3, COUP transcription factor 2 (Homo sapiens, UniProt P24468); assay: Luminescence-based cell-based high throughput dose response assay to identify inhibitors of COUP-TFII (NR2F2).; assay type: functional;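 further: HEK293 cells transiently cotransfected with COUP-TFII expression vector and reporter; luciferase reporter luminescence driven by COUP-TFII from the pX2-168 reporter plasmid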
T3 sequence (P24468 whole entry): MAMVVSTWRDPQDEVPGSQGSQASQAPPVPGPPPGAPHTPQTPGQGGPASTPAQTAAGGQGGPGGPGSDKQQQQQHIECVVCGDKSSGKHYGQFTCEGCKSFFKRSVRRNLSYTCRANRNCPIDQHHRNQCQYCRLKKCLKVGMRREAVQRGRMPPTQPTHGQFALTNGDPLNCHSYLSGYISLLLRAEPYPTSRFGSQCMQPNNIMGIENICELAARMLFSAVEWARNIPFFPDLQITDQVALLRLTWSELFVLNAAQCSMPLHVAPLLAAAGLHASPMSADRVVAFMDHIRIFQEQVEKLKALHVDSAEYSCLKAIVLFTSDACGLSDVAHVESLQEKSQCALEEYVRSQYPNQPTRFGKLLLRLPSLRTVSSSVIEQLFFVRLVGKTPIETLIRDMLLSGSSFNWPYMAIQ

[6] = loss of viability in HepG2 cells – cell-based, CellTiter-Glo, cherry-picked, cytotoxicity control for Shn3 inhibitor project, dose response (AID 624134); assay type: functional
[7] = target: Serine/threonine-protein phosphatase (Homo sapiens, UniProt Q9BPW0); assay: Counterscreen for inhibitors of PP1: fluorescence-based biochemical high throughput dose response assay to identify inhibitors of Protein Phosphatase 5 (PP5). [Related pubchem assays: 2034 (Summary (PP5 inhibitors)), 1987 (PP5 inhibitors in singlate), 2235 (PP1 inhibitors in singlate)]
Chain of Serine/threonine-protein phosphatase (Q9BPW0 whole entry): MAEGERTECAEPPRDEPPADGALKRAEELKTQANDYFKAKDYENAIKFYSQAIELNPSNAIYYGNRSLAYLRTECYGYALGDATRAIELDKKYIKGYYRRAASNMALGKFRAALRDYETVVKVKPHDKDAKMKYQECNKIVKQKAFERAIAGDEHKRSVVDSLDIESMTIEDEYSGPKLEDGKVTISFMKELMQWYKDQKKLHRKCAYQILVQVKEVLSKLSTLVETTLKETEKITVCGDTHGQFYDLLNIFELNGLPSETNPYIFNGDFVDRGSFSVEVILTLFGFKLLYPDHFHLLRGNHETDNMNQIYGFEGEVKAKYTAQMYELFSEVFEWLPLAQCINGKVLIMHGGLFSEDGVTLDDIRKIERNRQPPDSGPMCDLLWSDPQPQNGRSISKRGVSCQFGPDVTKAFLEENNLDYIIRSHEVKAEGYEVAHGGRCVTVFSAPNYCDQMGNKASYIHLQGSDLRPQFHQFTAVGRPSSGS

Vero = assay: cells; assay type: functional; conditions: Chlorocebus sabaeus
[8] = blockers of HIV-1 ZM109 envelope-driven cell-cell fusion – HeLa effector, CEM target cells, luciferase, cherry-pick, dose response (AID 652058); assay type: functional, cell-based;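 further: luciferase signal from HIV-1 Env mediated cell-cell fusion of effector and target cells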
[9] = Trypanosoma cruzi growth suppression in host cells – NIH3T3 host cells, beta-gal luminescence, confirmation (AID 2044); assay type: functional, cell-based;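 further: intracellular parasites grown in NIH/3T3 mouse fibroblasts as host cells; luminescent beta-galactosidase reporter signal from transgenic T. cruzi replicating inside host cells; inhibitors lower the luminescence signal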
[10] = off-target signal loss in HeLa-CEM21 co-culture – HeLa F-luc CTL cells, cherry-picked, counter-screen for HIV-1 Env fusion inhibitor project, dose response (AID 652040); assay type: functional, cell-based;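 further: potency for signal decrease marking cytotoxic or nonspecific inhibition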
[11] = blockers of HIV-1 envelope-mediated cell-cell fusion – cherry-pick, dose response (AID 652057); assay type: functional, cell-based
[12] = viability loss in CEM21 cells – cell-based, CellTiter-Glo luminescence, cherry-picked, cytotoxicity control for viral fusion inhibitor project, dose response (AID 652042); assay type: functional;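 further: potency for signal decrease meaning cytotoxicity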
[13] = test system: Streptococcus sp. 'group A'; assay: Streptococcus pyogenes SK(-)GAS viability under kanamycin – luminescence, BacTiterGlo, confirmation, counter-screen for streptokinase expression inhibitor project, dose response (AID 1900); assay type: functional, organism-based
[14] = HIV-1 AD8 envelope cell-cell fusion blockers – cherry-pick, dose response (AID 652062); assay type: functional, cell-based;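 further: luciferase signal from cell-cell fusion driven by HIV-1 clade B AD8 Env; potency is for inhibitors of fusion seen as a drop in luminescence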
[15] = non-specific 3'UTR reporter inhibition in Clone20-Shn3RL – cell-based, Renilla luciferase, cherry-picked, counter-screen for Shn3 inhibitor project, dose response (AID 624133); assay type: functional
cells [16] = assay type: functional, cell-based; conditions: HEK-CNG
[17] = target: Serine/threonine-protein phosphatase PP1-alpha catalytic subunit (Homo sapiens, UniProt P62136); assay: inhibition of protein phosphatase 1 activity – biochemical, fluorescence, dose response (AID 2403);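 further: phosphatase turnover of OMFP into fluorescent 3-O-methylfluorescein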
Chain of Serine/threonine-protein phosphatase PP1-alpha catalytic subunit (P62136 whole entry): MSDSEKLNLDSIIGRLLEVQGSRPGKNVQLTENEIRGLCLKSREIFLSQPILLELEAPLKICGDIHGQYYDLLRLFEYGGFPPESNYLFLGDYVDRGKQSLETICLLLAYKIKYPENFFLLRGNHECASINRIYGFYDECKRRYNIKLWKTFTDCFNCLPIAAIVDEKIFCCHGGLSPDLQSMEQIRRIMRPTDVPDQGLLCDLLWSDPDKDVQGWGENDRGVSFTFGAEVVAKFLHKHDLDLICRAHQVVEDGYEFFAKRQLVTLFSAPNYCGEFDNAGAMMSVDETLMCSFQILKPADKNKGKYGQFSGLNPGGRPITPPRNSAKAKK

Streptococcus = assay: GAS UMAA2166 growth inhibition – luminescence, BacTiterGlo, counter-screen for streptokinase expression inhibitor project, dose response (AID 1915); assay type: functional, organism-based;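 further: potency for reduction of bacterial viability or growth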
[18] = reduction of Shn3 3'UTR-driven luciferase in osteoblasts – cell-based, Clone20 osteoblasts, firefly luciferase, cherry-picked, dose response (AID 624132); assay type: functional;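 further: firefly luciferase luminescence from reporter carrying the Shn3 3'UTR in osteoblasts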
[19] = target: Sphingosine 1-phosphate receptor 2 (Homo sapiens, UniProt O95136); assay: Dose Response Cell Based Assay for Antagonists of the S1P2 Receptor. [Related pubchem assays: 856, 736 ]; assay type: functional
Chain of Sphingosine 1-phosphate receptor 2 (O95136 whole entry): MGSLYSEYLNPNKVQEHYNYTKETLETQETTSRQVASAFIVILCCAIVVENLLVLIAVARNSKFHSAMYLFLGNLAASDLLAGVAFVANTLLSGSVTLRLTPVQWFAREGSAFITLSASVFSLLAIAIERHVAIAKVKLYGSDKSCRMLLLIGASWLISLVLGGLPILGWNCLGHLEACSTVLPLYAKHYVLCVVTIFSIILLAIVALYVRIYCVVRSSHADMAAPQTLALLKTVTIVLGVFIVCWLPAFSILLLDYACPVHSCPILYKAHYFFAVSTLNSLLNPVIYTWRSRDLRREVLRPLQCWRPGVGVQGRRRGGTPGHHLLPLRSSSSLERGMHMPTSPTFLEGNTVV

BJ [20] = assay: BJ-TERT fibroblast viability loss – cell-based, RAS-independent, luminescence, dose response (AID 1933); assay type: functional; conditions: Homo sapiens
cells [21] = assay type: functional, cell-based
cells [22] = assay type: functional, cell-based; remark: listed apart in the source
INS1 = assay: INS-1E survival protection against cytokine death – cell-based, luminescence, retest, dose response (AID 449756); assay type: functional; conditions: Rattus norvegicus;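 further: cell death triggered by IL-1 beta plus TNF-alpha plus IFN-gamma mixture; protective hits raise ATP signal compared with cytokine alone wells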
BJ [23] = assay: BJ-TERT-LT-ST fibroblast viability loss – cell-based, RAS-independent, luminescence, dose response (AID 1935); assay type: functional; conditions: Homo sapiens;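 further: BJ fibroblasts immortalized with TERT plus LT and ST oncogenes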
[24] = DRD fibroblast viability loss – cell-based, non-viral oncogenic, luminescence, dose response (AID 1934); assay type: functional; conditions: Homo sapiens
BJ [25] = assay: cells; assay type: functional, cell-based, Homo sapiens; conditions: Homo sapiens, BJ

Chain of Peroxisome proliferator-activated receptor gamma/Nuclear receptor corepressor 2 (P37231 whole entry): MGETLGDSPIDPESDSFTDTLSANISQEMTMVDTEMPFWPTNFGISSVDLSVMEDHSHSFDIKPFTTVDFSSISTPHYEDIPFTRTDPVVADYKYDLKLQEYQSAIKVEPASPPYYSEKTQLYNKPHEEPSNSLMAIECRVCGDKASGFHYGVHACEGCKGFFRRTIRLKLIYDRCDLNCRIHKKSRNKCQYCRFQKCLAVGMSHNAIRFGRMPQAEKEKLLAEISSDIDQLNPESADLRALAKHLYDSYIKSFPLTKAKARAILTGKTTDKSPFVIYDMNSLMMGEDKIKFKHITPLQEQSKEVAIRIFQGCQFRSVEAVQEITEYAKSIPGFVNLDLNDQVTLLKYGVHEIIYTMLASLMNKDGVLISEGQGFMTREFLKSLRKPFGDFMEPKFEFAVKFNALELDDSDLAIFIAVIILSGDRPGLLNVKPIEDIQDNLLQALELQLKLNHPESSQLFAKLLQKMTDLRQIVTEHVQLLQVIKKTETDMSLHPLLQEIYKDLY
Chain of Peroxisome proliferator-activated receptor gamma/Nuclear receptor corepressor 2 (Q9Y618 whole entry): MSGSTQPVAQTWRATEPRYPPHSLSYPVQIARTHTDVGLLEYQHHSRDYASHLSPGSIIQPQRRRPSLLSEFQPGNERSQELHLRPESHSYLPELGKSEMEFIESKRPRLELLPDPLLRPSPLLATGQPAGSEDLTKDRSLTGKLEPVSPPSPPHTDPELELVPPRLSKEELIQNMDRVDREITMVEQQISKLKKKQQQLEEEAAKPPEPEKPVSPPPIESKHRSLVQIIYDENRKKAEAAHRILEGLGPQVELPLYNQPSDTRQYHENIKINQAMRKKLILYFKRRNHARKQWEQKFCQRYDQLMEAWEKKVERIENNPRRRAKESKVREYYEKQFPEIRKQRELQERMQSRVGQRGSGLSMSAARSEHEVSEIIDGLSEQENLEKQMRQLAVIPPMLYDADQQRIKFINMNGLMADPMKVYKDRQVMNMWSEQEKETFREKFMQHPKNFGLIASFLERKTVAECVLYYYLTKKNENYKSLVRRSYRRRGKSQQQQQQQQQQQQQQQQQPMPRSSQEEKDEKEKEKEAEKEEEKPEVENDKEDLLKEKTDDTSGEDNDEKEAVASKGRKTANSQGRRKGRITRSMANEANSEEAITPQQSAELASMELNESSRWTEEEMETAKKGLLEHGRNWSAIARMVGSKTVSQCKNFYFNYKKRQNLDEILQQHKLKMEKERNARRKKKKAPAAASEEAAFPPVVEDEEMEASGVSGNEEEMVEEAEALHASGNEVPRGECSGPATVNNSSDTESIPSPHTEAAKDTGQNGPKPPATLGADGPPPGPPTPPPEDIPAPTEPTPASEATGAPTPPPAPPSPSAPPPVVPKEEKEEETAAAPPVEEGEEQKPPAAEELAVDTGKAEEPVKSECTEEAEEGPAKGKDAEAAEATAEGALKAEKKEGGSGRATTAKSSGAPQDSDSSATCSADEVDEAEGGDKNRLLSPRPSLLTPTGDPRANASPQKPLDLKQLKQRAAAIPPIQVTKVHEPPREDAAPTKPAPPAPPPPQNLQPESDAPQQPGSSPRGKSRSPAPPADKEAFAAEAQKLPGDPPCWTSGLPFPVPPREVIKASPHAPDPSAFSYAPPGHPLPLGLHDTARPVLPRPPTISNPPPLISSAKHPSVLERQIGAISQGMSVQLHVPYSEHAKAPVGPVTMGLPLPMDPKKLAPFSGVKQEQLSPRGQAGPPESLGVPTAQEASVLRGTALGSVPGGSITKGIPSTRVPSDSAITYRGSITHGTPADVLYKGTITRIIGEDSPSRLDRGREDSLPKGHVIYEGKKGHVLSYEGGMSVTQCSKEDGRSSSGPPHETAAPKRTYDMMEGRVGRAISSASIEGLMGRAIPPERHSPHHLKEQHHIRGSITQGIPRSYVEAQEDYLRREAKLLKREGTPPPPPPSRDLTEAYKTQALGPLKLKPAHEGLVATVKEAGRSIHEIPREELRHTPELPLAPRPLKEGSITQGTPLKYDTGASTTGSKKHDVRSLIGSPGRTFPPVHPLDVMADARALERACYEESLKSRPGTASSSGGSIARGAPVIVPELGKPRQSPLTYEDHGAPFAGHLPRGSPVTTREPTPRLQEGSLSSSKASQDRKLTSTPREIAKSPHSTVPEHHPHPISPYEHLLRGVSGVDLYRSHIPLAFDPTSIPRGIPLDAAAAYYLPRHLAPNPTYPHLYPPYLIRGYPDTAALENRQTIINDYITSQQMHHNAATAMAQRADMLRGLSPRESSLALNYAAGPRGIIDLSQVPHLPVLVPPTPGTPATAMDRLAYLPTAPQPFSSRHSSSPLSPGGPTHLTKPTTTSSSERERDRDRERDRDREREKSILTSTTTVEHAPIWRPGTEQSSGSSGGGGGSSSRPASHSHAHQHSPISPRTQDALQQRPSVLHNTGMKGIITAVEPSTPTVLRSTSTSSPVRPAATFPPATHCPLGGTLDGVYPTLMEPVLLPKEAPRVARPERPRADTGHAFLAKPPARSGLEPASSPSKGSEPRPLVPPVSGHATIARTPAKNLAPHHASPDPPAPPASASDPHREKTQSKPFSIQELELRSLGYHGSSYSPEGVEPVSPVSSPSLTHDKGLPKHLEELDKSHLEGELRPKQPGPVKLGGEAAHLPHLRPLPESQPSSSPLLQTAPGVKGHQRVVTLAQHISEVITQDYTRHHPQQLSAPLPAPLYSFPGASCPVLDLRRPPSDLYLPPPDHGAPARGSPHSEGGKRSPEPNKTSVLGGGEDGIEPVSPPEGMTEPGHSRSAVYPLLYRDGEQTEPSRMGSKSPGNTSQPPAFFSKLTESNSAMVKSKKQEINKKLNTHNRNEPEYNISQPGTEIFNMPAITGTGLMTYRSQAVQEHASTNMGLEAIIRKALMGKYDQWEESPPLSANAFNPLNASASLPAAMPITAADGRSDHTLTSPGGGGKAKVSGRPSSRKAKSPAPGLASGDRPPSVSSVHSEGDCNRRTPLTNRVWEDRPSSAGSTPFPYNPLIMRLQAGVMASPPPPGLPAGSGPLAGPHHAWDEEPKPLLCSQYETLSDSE

| SMILES | IC50 [3] | EC50 [4] | AC50 [6] | IC50 [7] | EC50 [9] | EC50 [13] | AC50 [15] | IC50 [17] | EC50 (Streptococcus) | AC50 [18] | other results |
| --- | --- | --- | --- | --- | --- | --- | --- | --- | --- | --- | --- |
| N#Cc1ccc(Cl)cc1NC(=O)COC(=O)c1ccc2c(c1)OCCO2 |  |  |  |  |  |  |  |  |  |  | IC50 [1]: 2.78 µM (active); IC50 [2]: > 39.8 µM (not active) |
| CCN1CCN(C2=C(Cl)C(=O)N(c3ccc(C)cc3)C2=O)CC1 | > 50 µM (inconclusive) |  |  |  |  |  |  |  |  |  |  |
| O=C(O)CSc1ccc2cc(O)ccc2c1 | > 100 µM (not active) |  |  |  |  |  |  |  |  |  |  |
| O=C(NCCN1CCCCCC1)C1CCC(CNS(=O)(=O)c2cccc3cccnc23)CC1 (stereo not given) |  |  |  |  |  |  |  |  |  |  | IC50 (Bcl-2-like protein 10): > 100 µM (inactive) |
| CCOC(=O)c1cnc(-n2nc(C)cc2C)nc1NC1CCCCC1 |  | 12.8 µM (active) | 4.48 µM (active) | > 67 µM (not active) | 1.2 µM (active) | 1.82 µM (active) | 3.29 µM (active) | 6.65 µM (active) | 2.5 µM (active) | 3.01 µM (active) | IC50 (Galanin receptor type 3): > 29.9 µM (inactive); IC50 [5]: 7.02 µM (active); CC50 (Vero): 11.5 µM (active); AC50 [8]: 21.3 µM (active); AC50 [10]: 27.1 µM (active); AC50 [11]: 35.5 µM (active); AC50 [12]: 18.1 µM (active); AC50 [14]: 33.4 µM (active); EC50 (cells [16]): 14.5 µM (inactive); IC50 [19]: 4.39 µM (active) |
| Cc1ccc(Nc2c(-c3ccccn3)nc3cccc(C)n23)cc1 |  | < 6 µM (inconclusive) | 25.6 µM (active) | 45.1 µM (not active) | 0.488 µM (active) | 0.77 µM (active) | 0.907 µM (active) | 8.52 µM (active) | 1.35 µM (active) | 1.9 µM (active) | EC50 (BJ [20]): 6.81 µM (active); EC50 (cells [21]): > 350 µM (not active); EC50 (cells [22]): 12.7 µM (active); AC50 (INS1): 2.77 µM (active); EC50 (BJ [23]): 8.61 µM (inconclusive); EC50 [24]: 13.5 µM (active); EC50 (BJ [25]): 14.3 µM (active) |
